Test results: patent US20260224524A1, “A PHARMACEUTICAL COMPOSITION TARGETING MUTANT P53 AND HER2” (DR DOZO LABORATORIES, priority 2023, published 2026)
Values after ≈ are worked out from the molar mass of the structure shown.

Assays:
[1] = tested on: Human Pancreatic Cancer Cell Line Mia-Pa-Ca-2; assay: Growth inhibition (% control growth, LC50, TGI, GI50) Mia-Pa-Ca-2; format: cell-based; conditions: for GI50: Homo sapiens
Procedure: The therapeutic effect of SA1 (peak 5) and SA2 (peak 4) is evaluated against human pancreatic cancer cell line Mia-Pa-Ca-2 by calculating the percentage growth inhibition, drug concentration of test compound needed to inhibit cell growth by 50% (GI50) values.
The therapeutic effect of SACC is evaluated against human […] cancer cell line Mia-Pa-Ca-2 by calculating the percentage growth inhibition, drug concentration of test compound needed to inhibit cell growth by 50% (GI50) values.

[2] = tested on: Human Lung Cancer Cell Line A-549; assay: Growth inhibition (% control growth, LC50, TGI, GI50) A-549; format: cell-based
Procedure: The therapeutic effect of SA1 (peak 5) and SA2 (peak 4) is evaluated against human lung cancer cell line A-549 by calculating the percentage growth inhibition, drug concentration of test compound needed to inhibit cell growth by 50% (GI50) values.
The therapeutic effect of SACC is evaluated against human lung cancer cell line A-549 by calculating the percentage growth inhibition, drug concentration of test compound needed to inhibit cell growth by 50% (GI50) values.

With `COc1cccc2c1C(=O)c1c(O)c3c(c(O)c1C2=O)C[C@@](O)(C(=O)CO)C[C@@H]3O[C@H]1C[C@H](N)[C@H](O)[C@H](C)O1` [ADR, Adriamycin] the GI50 ([1]; MIA PaCa-2, Mia-Pa-Ca-2, calculated from graph) was < 10 µg/mL, the GI50 ([1]; MIA PaCa-2, Mia-Pa-Ca-2, Molar drug concentrations calculated from graph) was 4.75 µg/mL (≈ 8.74 µM) and the “% Control Growth” value ([1]; Mia-Pa-Ca-2, 10 μg/ml, Average Values) was −89.7%. The “% Control Growth” value ([1]; Mia-Pa-Ca-2, 10 μg/ml, Experiment 1) was −88.7%, the “% Control Growth” value ([1]; Mia-Pa-Ca-2, 10 μg/ml, Experiment 2) was −89.2% and the “% Control Growth” value ([1]; Mia-Pa-Ca-2, 10 μg/ml, Experiment 3) was −91.2%. The “% Control Growth” value ([1]; Mia-Pa-Ca-2, 20 μg/ml, Average Values) was −91.1%, the “% Control Growth” value ([1]; Mia-Pa-Ca-2, 20 μg/ml, Experiment 1) was −91.3% and the “% Control Growth” value ([1]; Mia-Pa-Ca-2, 20 μg/ml, Experiment 2) was −90.4%. The “% Control Growth” value ([1]; Mia-Pa-Ca-2, 20 μg/ml, Experiment 3) was −91.5%, the “% Control Growth” value ([1]; Mia-Pa-Ca-2, 40 μg/ml, Average Values) was −91.5% and the “% Control Growth” value ([1]; Mia-Pa-Ca-2, 40 μg/ml, Experiment 1) was −91.4%. The “% Control Growth” value ([1]; Mia-Pa-Ca-2, 40 μg/ml, Experiment 2) was −92.3%, the “% Control Growth” value ([1]; Mia-Pa-Ca-2, 40 μg/ml, Experiment 3) was −91.0% and the “% Control Growth” value ([1]; Mia-Pa-Ca-2, 80 μg/ml, Average Values) was −84.7%. The “% Control Growth” value ([1]; Mia-Pa-Ca-2, 80 μg/ml, Experiment 1) was −84.1%, the “% Control Growth” value ([1]; Mia-Pa-Ca-2, 80 μg/ml, Experiment 2) was −87.5% and the “% Control Growth” value ([1]; Mia-Pa-Ca-2, 80 μg/ml, Experiment 3) was −82.3%. The “% Control Growth” value ([1]; Mia-Pa-Ca-2, 10^−4M, Average Values) was −89.6%, the “% Control Growth” value ([1]; Mia-Pa-Ca-2, 10^−4M, Experiment 1) was −88.2% and the “% Control Growth” value ([1]; Mia-Pa-Ca-2, 10^−4M, Experiment 2) was −89.7%. For the same compound, the “% Control Growth” value ([1]; Mia-Pa-Ca-2, 10^−4M, Experiment 3) was −91.0%, the “% Control Growth” value ([1]; Mia-Pa-Ca-2, 10^−5M, Average Values) was −87.8% and the “% Control Growth” value ([1]; Mia-Pa-Ca-2, 10^−5M, Experiment 1) was −88.7%. For the same compound, the “% Control Growth” value ([1]; Mia-Pa-Ca-2, 10^−5M, Experiment 2) was −87.4%, the “% Control Growth” value ([1]; Mia-Pa-Ca-2, 10^−5M, Experiment 3) was −87.3% and the “% Control Growth” value ([1]; Mia-Pa-Ca-2, 10^−6M, Average Values) was −75.8%. For the same compound, the “% Control Growth” value ([1]; Mia-Pa-Ca-2, 10^−6M, Experiment 1) was −77.3%, the “% Control Growth” value ([1]; Mia-Pa-Ca-2, 10^−6M, Experiment 2) was −75.7% and the “% Control Growth” value ([1]; Mia-Pa-Ca-2, 10^−6M, Experiment 3) was −74.5%. For the same compound, the “% Control Growth” value ([1]; Mia-Pa-Ca-2, 10^−7M, Average Values) was −60.2%, the “% Control Growth” value ([1]; Mia-Pa-Ca-2, 10^−7M, Experiment 1) was −3.2% and the “% Control Growth” value ([1]; Mia-Pa-Ca-2, 10^−7M, Experiment 2) was −88.2%. The “% Control Growth” value ([1]; Mia-Pa-Ca-2, 10^−7M, Experiment 3) was −89.3%, the TGI ([1]; Mia-Pa-Ca-2, Molar drug concentrations calculated from graph) was 4.69 µg/mL (≈ 8.63 µM) and the TGI ([1]; Mia-Pa-Ca-2, calculated from graph) was <10 µg/mL. The “% Control Growth” value ([2]; A-549, 10 μg/ml, Average Values) was −26.5%, the “% Control Growth” value ([2]; A-549, 10 μg/ml, Experiment 1) was −23.5% and the “% Control Growth” value ([2]; A-549, 10 μg/ml, Experiment 2) was −29.5%. For the same compound, the “% Control Growth” value ([2]; A-549, 10 μg/ml, Experiment 3) was −26.5%, the “% Control Growth” value ([2]; A-549, 20 μg/ml, Average Values) was −30.8% and the “% Control Growth” value ([2]; A-549, 20 μg/ml, Experiment 1) was −28.2%. For the same compound, the “% Control Growth” value ([2]; A-549, 20 μg/ml, Experiment 2) was −33.8%, the “% Control Growth” value ([2]; A-549, 20 μg/ml, Experiment 3) was −30.4% and the “% Control Growth” value ([2]; A-549, 40 μg/ml, Average Values) was −46.0%. The “% Control Growth” value ([2]; A-549, 40 μg/ml, Experiment 1) was −45.0%, the “% Control Growth” value ([2]; A-549, 40 μg/ml, Experiment 2) was −48.7% and the “% Control Growth” value ([2]; A-549, 40 μg/ml, Experiment 3) was −44.2%. For the same compound, the “% Control Growth” value ([2]; A-549, 80 μg/ml, Average Values) was −50.0%, the “% Control Growth” value ([2]; A-549, 80 μg/ml, Experiment 1) was −49.4% and the “% Control Growth” value ([2]; A-549, 80 μg/ml, Experiment 2) was −51.0%. The “% Control Growth” value ([2]; A-549, 80 μg/ml, Experiment 3) was −49.4%, the “% Control Growth” value ([2]; A-549, 10^−4M, Average Values) was −43.0% and the “% Control Growth” value ([2]; A-549, 10^−4M, Experiment 1) was 36.5%. The “% Control Growth” value ([2]; A-549, 10^−4M, Experiment 2) was 44.4%, the “% Control Growth” value ([2]; A-549, 10^−4M, Experiment 3) was −48.1% and the “% Control Growth” value ([2]; A-549, 10^−5M, Average Values) was −34.9%. The “% Control Growth” value ([2]; A-549, 10^−5M, Experiment 1) was −30.6%, the “% Control Growth” value ([2]; A-549, 10^−5M, Experiment 2) was −33.8% and the “% Control Growth” value ([2]; A-549, 10^−5M, Experiment 3) was −40.3%. The “% Control Growth” value ([2]; A-549, 10^−6M, Average Values) was −4.0%, the “% Control Growth” value ([2]; A-549, 10^−6M, Experiment 1) was 10.2% and the “% Control Growth” value ([2]; A-549, 10^−6M, Experiment 2) was −11.3%. For the same compound, the “% Control Growth” value ([2]; A-549, 10^−6M, Experiment 3) was −11.0%, the “% Control Growth” value ([2]; A-549, 10^−7M, Average Values) was 12.4% and the “% Control Growth” value ([2]; A-549, 10^−7M, Experiment 1) was 53.2%. The “% Control Growth” value ([2]; A-549, 10^−7M, Experiment 2) was 15.9%, the “% Control Growth” value ([2]; A-549, 10^−7M, Experiment 3) was −32.0% and the TGI ([2]; A-549, Molar drug concentrations calculated from graph) was 4.143 µg/mL (≈ 7.62 µM). For the same compound, the TGI ([2]; A-549, calculated from graph) was <10 µg/mL, the GI50 ([2]; Homo sapiens, A549, A-549, calculated from graph) was < 10 µg/mL and the CC50 ([2]; Homo sapiens, A549, read-out: LC50, A-549, calculated from graph) was 72 µg/mL (≈ 132 µM). The GI50 ([2]; Homo sapiens, A549, A-549, Molar drug concentrations calculated from graph) was 1.2 µg/mL (≈ 2.21 µM).
